Measurements from patent US11747321B2, “Apparatuses for cell mapping via impedance measurements and methods to operate the same” (President and Fellows of Harvard College, priority 2020, dated 2023).

Columns and labels:
MDCK cells [1] = test system: MDCK cells
Text: Ethylenediaminetetraacetic acid (EDTA) is applied to the cells. EDTA is a calcium chelator that removes Ca^2+ needed for integrin proteins to maintain cell adhesion.
FIG. 6b is a data plot showing mean normalized impedances for different regions of the cell culture over time as specified in the map 601. FIG. 6cc are histograms of the normalized impedance values before, during, and after a washout of EDTA across the array.

MDCK cells [2] = experiment: Wound healing assay: electrochemically patterned wound, regrowth measured by impedance mapping; type: cell-based, Canine; conditions: 1 μM, over 72 hours, control culture shows regrowth
Text: This example describes a combined application of both the cross-electrode impedance mapping and cell patterning is a wound healing assay.
These assays gauge cell growth rate and metabolism and can be useful for screening drugs affecting these parameters. Compared to the electrochemical patterning described herein, other tools mechanically generate a wound in a cell culture via a mechanical scratch which is both difficult to control and limiting in terms of wound pattern.
In this example, a wound is made in MDCK cells and then the growth is mapped in real-time. […] These patterns were defined by applying electrode currents of −10 nA for 40 s versus a Ag/AgCl pseudo reference electrode. The regrowth of the culture was then measured using the impedance mapping method.

Structure (SMILES) | time course of cell detachment with EDTA applied (MDCK cells [1]; 5 mM EDTA application, normalized impedance maps) [min] | time course of cell re-attachment after EDTA washout (MDCK cells [1]; EDTA washed out by adding normal culture media) [min] | regrowth of wounded cell culture (normalized cross-electrode impedance maps) (MDCK cells [2])
O=C(O)CN(CCN(CC(=O)O)CC(=O)O)CC(=O)O [EDTA, Ethylenediaminetetraacetic acid] | ~50 | ~200 | –
C=C1[C@@H](C)[C@H]2[C@H](Cc3ccccc3)NC(=O)[C@]23OC(=O)/C=C/[C@H](O)CCC[C@@H](C)C/C=C/[C@H]3[C@@H]1O [cytochalasin B] | – | – | very little growth
